Activity calls are given as the source filed them. The rule behind the calls is not given here.
Legend:
Hepatitis C virus [1] = test: Antiviral activity against HCV con1 replicon by HCV subgenomic replicon assay; type: functional, organism-based, Hepacivirus hominis; conditions: genotype 1b con1
[2] = Cytotoxicity against Huh7 cells expressing HCV con1 replicon; type: cell-based, Huh-7; conditions: human
[3] = Cytotoxicity against MT4 cells; type: cell-based; conditions: human
Hepatitis C virus [4] = test: Incorporation by HCV con1 NS5Bdelta55 RNA polymerase upto 1mM; conditions: Hepatitis C virus subtype 1b
Hepatitis C virus [5] = test: Inhibition of recombinant HCV con1 NS5Bdelta21 RNA polymerase; design: species or system Hepatitis C virus subtype 1b

SMILES	EC50 (Hepatitis C virus [1]) [µM]	IC50 (Hepatitis C virus [5]) [µM]	CC50 [2] [µM]	CC50 [3] [µM]	Activity (Hepatitis C virus [4])
Cc1ncnc2c1ncn2[C@H]1O[C@@H](CO)[C@H](O)[C@@H]1O	> 500	–	> 500	–	–
CCc1ncnc2c1ncn2[C@H]1O[C@@H](CO)[C@H](O)[C@@H]1O	> 500	–	> 500	–	–
OCc1ncnc2c1ncn2[C@H]1O[C@@H](CO)[C@H](O)[C@@H]1O	> 500	–	> 500	–	–
Nc1ncnc2c1ncn2[C@H]1O[C@@H](COP(=O)(O)O)[C@H](OP(=O)(O)O)[C@@H]1OP(=O)(O)O	–	–	–	–	inactive
OC[C@@H]1O[C@H](n2cnc3c(-c4ccccc4)ncnc32)[C@@H](O)[C@H]1O	> 100	–	> 50	–	–
O=P(O)(O)OC[C@@H]1O[C@H](n2cnc3c(Cc4ccccc4)ncnc32)[C@@H](OP(=O)(O)O)[C@H]1OP(=O)(O)O	–	–	–	–	inactive
OC[C@@H]1O[C@H](n2cnc3c(-c4ccsc4)ncnc32)[C@@H](O)[C@H]1O	> 50	–	> 50	–	–

More lines, main results first:

EC50 (Hepatitis C virus [1]) [µM]	IC50 (Hepatitis C virus [5]) [µM]	SMILES	CC50 [2] [µM]	CC50 [3] [µM]	Activity (Hepatitis C virus [4])
> 100	–	OC[C@@H]1O[C@H](n2cnc3c(-c4ccco4)ncnc32)[C@@H](O)[C@H]1O	> 100	–	–
56	–	OC[C@H]1O[C@H](n2cnc3c(-c4cccs4)ncnc32)[C@@H](O)[C@H]1O	> 100	> 100	–
41	> 100	OC[C@@H]1O[C@H](n2cnc3c(Cc4ccccc4)ncnc32)[C@@H](O)[C@H]1O	> 500	> 500	inactive
> 50	–	COc1ccc(-c2ncnc3c2ncn3[C@H]2OC(CO)[C@H](O)[C@@H]2O)cc1 (single isomer, unassigned)	> 100	–	–

Source: ChEMBL document CHEMBL1137249, “Cytostatic and antiviral 6-arylpurine ribonucleosides. Part 7: synthesis and evaluation of 6-substituted purine l-ribonucleosides” (Bioorg Med Chem Lett, 2006)
